According to patent US8232107B2, “Methods for measuring the metabolism of neurally derived biomolecules in vivo” (Washington University in St. Louis, priority 2005, dated 2012):
Blank lines part the entries; values can stand above or below the compound they belong to.

How the values were obtained:
[1] = in vivo, iv, 2 mg/kg
Excerpt: All human studies were approved by the Washington University Human Studies Committee and the General Clinical Research Center (GCRC) Advisory Committee. Informed consent was obtained from all participants. All participants were screened to be in good general health and without neurologic disease. Seven men and three women (23-45 yrs old) participated. Each research participant was admitted to the GCRC at 7:00 AM after an overnight fast from 8 PM the preceding evening. The GCRC Research Kitchen provided meals (60% carbohydrate, 20% fat, 20% protein, low leucine diet during labeled leucine infusion) at 9 AM, 1 PM, and 6 PM and the participant had free access to water. All food and water consumption was recorded during the admission by nursing staff and the GCRC kitchen. One intravenous catheter was placed in an antecubital vein and used to administer the stable isotope labeled leucine solution. A second intravenous catheter was placed in the contra-lateral antecubital vein to obtain blood samples. A subarachnoid catheter was inserted at the L3-L4 interspace via a Touhy needle, so that CSF could be sampled without performing multiple lumbar punctures (Williams, 2002, Neurology 58: 1859-1860). […]
Every hour, 10 ml of plasma was obtained through the other IV. […] To obtain amino acid sequence and abundance data, these parent ions were subjected to collision induced dissociation (CID 28%), and tandem MS analysis of their doubly-charged species ([M+2H]^+2; m/z 663.6 and 666.6) were scanned in selected reaction monitoring mode (SRM), so that the y- and b-series ions generated were used for isotope ratio quantitation (FIG. 6). […]
Plasma and CSF samples were analyzed to determine the amount of labeled leucine present in each fluid (FIG. 9). The labeled to unlabeled leucine ratios for plasma and CSF ^13C6-leucine were quantified using capillary gas chromatography-mass spectrometry (GC-MS) (Yarasheski et al. 2005, Am J. Physiol. Endocrinol. Metab. 288: E278-284; Yarasheski et al. 1998 Am J. Physiol. 275: E577-583), which is more appropriate than LC-ESI-MS for low mass amino acid analysis.

[2] = Measurement of ApoE metabolism in vivo (CSF, WUE4 affinity purification, nanoLC tandem MS); set-up: species or system human
Excerpt: As depicted in FIG. 13, human ApoE was immunoprecipitated from CSF or astrocyte cell culture media using WUE4, a specific anti-human ApoE monoclonal (anti-ApoE) antibody. An immortalized astrocyte cell line from transgenic mice expressing human ApoE was used to produce ^13C6-labeled leucine ApoE standards. Immunoprecipitated ApoE was then digested with sequencing-grade trypsin. Released peptides were separated by nano liquid chromatography and quantitated by tandem mass spectrometry (nanoLC-MS). The efficiency and selectivity of the immuno-affinity purification was confirmed by analyzing the samples following a general proteomics LC-MS method. Results from Bioworks™3.2, using the SEQUEST algorithm, confirmed ApoE was the predominant protein present in samples, and identified the most abundant peptides containing leucines, which could be used for quantitation. Due to the 6 Da mass shift of a ^13C6-labeled leucine, unlabeled peptides were distinguishable from labeled peptides. Tandem MS was performed on the peptides of interest, and the percent of ^13C-leucine incorporated into ApoE was determined by calculating the ratio of labeled product ions to unlabeled product ions. The excellent linearity from 0-25% labeling (R^2=0.99) indicates the method developed to measure ApoE is sensitive, specific, and accurate.
CSF was collected every hour for 36 hours.

[3] = In vivo labeling of Aβ in human CSF, immunoprecipitation-MS/MS, calculation of FSR and FCR
Description: Informed consent was obtained from all participants. […] CSF samples were obtained hourly throughout the study.
Aβ metabolic labeling curves of three participants are presented in FIG. 8. ^13C6-labeled leucine was infused through one IV at a rate of 1.9 (circles), 2.5 (triangles), or 2.5 (squares) mg/kg/hr for 12 (circles, triangles) or 9 (squares) hours. Each hour, 10 ml of plasma and 6 ml of CSF were obtained through the other IV and the lumbar catheter, respectively. There was a 5-hour lag time before significant rises in labeled Aβ was detected. This was followed by a 9 (squares) or 12 (triangles or circles) hour increase in labeled Aβ until it plateaued for another 5 hours.
For each hourly sample of CSF collected, the ratio of labeled to unlabeled Aβ was determined by immunoprecipitation-MS/MS, as described above. The MS/MS ions from ^13C6-labeled Aβ17-28 were divided by the MS/MS ions from unlabeled Aβ17-28 to produce a ratio of labeled Aβ to unlabeled Aβ (see TTR formula, above). There was no measurable labeled Aβ for the first 4 hours, followed by an increase from 5 to 13 hours. There was no significant change from 13 to 24 hours. The labeled Aβ decreased from 24 to 36 hours.
[formula] Where (Et2-Et1)Aβ/(t2-t1) is defined as the slope of labeled Aβ during labeling and the Precursor E is the ratio of labeled leucine. FSR, in percent per hour, was operationally defined as the slope of the linear regression from 6 to 15 hours divided by the average of CSF ^13C6-labeled leucine level during infusion (see FIG. 11A-C). For example, a FSR of 7.6% per hour means that 7.6% of total Aβ was produced each hour.
The fractional clearance rate (FCR) was calculated by fitting the slope of the natural logarithm of the clearance portion of the labeled Aβ curve, according to the following formula: […]
The FCR was operationally defined as the natural log of the labeled Aβ from 24 to 36 hours (FIG. 11D-F). For example, a FCR of 8.3% per hour means that 8.3% of total Aβ was cleared each hour. The average FSR of Aβ for these 6 healthy young participants was 7.6%/hr and the average FCR was 8.3%/hr (FIG. 12). These values were not statistically different from each other.

steady state level of 13C6-leucine in CSF [1]: 10% | steady state level of 13C6-leucine in plasma [1]: 14% | time to reach steady state levels in plasma and CSF [1]: within an hour
Compound: CC(C)C[C@H](N)C(=O)O [^13C6-leucine]

Compound: ApoE: human apolipoprotein E, CNS-derived, purified from CSF
fractional synthesis rate (FSR) of ApoE ([2]; CSF, young normal controls (FIG. 15 and 16)): approximately 2 percent per hour | time in which approximately half of the ApoE pool is synthesized in the human brain ([2]; from FSR): about 24 hours

Compound: Aβ: amyloid-β protein, CNS derived biomolecule whose metabolism is measured
average fractional synthesis rate (FSR) of Aβ ([3]; 6 healthy young participants): 7.6 %/hr | average fractional clearance rate (FCR) of Aβ ([3]; hours 24 to 36, 3 participants): 8.3 %/hr | initial period with no measurable labeled Aβ ([3]; mean of n=6 (FIG. 10)): 4 h | lag time before significant rises in labeled Aβ ([3]; three participants (FIG. 8)): 5 h
